Results on 5 compounds are retold here after US7799524B2, “Substrates for O6-alkylguanina-DNA alkyltransferase” (Ecole Polytechnique Ferdeale de Lausanne, priority 2002, dated 2010).

Experiment [1] deals with T1, ^PGEAhAGT-GST (Homo sapiens, UniProt P16455, G160A/N157G/S159E).
T1 sequence (P16455 1-207 N157G/S159E/G160A): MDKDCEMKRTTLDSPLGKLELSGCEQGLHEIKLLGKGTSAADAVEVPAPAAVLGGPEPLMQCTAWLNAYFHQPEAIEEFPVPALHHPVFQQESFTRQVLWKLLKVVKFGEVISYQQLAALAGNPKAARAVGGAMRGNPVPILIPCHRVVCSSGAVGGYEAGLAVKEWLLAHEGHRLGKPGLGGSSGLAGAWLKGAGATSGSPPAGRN
In words: Labelling of hAGT fusion protein, Western Blot with anti-fluorescein antibody. The format is biochemical. The following applies: 18 pmol ^PGEAhAGT-GST, 0.5 nmol compound, 15 μL 50 mM HEPES pH 7.5. How it is done: Lanes 1 and 2 (two different concentrations) show the reaction product of compound 60 bearing a fluorescein label and a biotin label (a compound of formula 1 wherein L is a plurality of labels) with ^PGEAhAGT-GST.
18 pmol ^PGEAhAGT-GST are incubated with 0.5 nmol 60 in a total volume of 15 μL of 50 mM HEPES pH 7.5. The reaction product is detected by Western Blotting using a goat anti-fluorescein antibody (Rockland) and a HRP conjugated anti-goat antibody (Sigma).
In general terms: A western blot detects proteins with antibodies after separation by electrophoresis.

Experiment [2] has as its target T1, ^PGEAhAGT-GST. The experiment in a line: Reactivity with hAGT fusion protein: pre-incubation with compound, then biotinylated O^6-benzylguanine-oligonucleotide, Western Blot (anti-biotin). In kind it is biochemical. The following applies: 18 pmol protein, 0.2 μL of 5 mM compound in 15 μL 50 mM HEPES pH 7.5, 1 h, then 10 pmol biotinylated oligonucleotide 15 min.
Description: Lane marked “C” (control): The reaction product of ^[…] and the biotinylated O^6-benzylguanine oligonucleotide. […] Damoiseaux et al., ChemBiochem 4: 285-287, 2001) is added, and the reaction is allowed to continue for further 15 min. As a control 18 pmol ^[…] are incubated with 10 pmol of the same biotinylated oligonucleotide in a total volume of 15 μL of 50 mM HEPES pH 7.5 for 15 min without any substrate. Detection of the biotinylated reaction product between ^[…] and the biotinylated oligonucleotide is performed by Western Blotting using an anti-biotin conjugate coupled to HRP (Pierce).
The subject of experiment [3] is yeast strain L40 expressing LexA and B42 fusion proteins of ^3HYhAGT and DHFR. In words: Quantitative β-galactosidase assay using ONPG (lacZ reporter) in yeast L40. The note with it: 1 μM, cell extracts of liquid cultures. In kind it is cell-based. How it is done:
The activation of transcription of the lacZ reporter gene by the benzyl guanine based compounds 78 and 79 in the yeast strain L40 expressing different combinations of LexA and B42 fusion proteins is examined (Table 2). In this assay, the activity of the product of the lacZ gene, β-galactosidase, is determined by measuring the hydrolysis rate of the chromogenic substrate o-nitrophenyl-β-D-galactopyranoside (ONPG) in cell extracts of liquid cultures.

Experiment [4] relates to yeast L40 expressing LexA and B42 fusion proteins of ^3HYhAGT and DHFR. In words: Growth assay of yeast L40 strains on plates lacking histidine (HIS3 reporter, three-hybrid system). In kind it is cell-based. The note with it: for Growth rate: plates lacking histidine. Here is the method:
Pairs of plasmids encoding LexA-^3HYhAGT and B42-DHFR fusion proteins are transformed into the yeast strain L40 in which the reconstitution of functional LexA-B42 transcription factor leads to transcription of the reporter genes HIS3 and lacZ. It is tested if the expression of different combinations of fusion protein in the presence of either 78 or 79 complemented the histidine auxotrophy of the yeast L40 (Table 1). […] No growth is observed in the absence of 78 or 79.
In principal, the reconstitution of functional transcription factor through benzyl guanine 78 and 79 is independent of which ligand-binding protein is fused to LexA and which to B42. To verify this assumption the growth of yeast L40 co-expressing LexA-DHFR and B42-^3HYhAGT on plates lacking histidine but containing compounds 78 or 79 is examined.

A further experiment addresses T2, GST-^3HYhAGT (Homo sapiens, UniProt P16455, A127T/K125A/N157G/R128A/S159E).
T2 construct: made in house; host or cells: E. coli
T2 sequence (P16455 1-207 K125A/A127T/R128A/N157G/S159E): T1 sequence (P16455 1-207 N157G/S159E/G160A) with K125A, A127T, R128A, A160G
In words: In vitro reactivity against GST-^3HYhAGT followed by Western Blotting with anti-methotrexate antibody. In kind it is biochemical. How it is done: GST-^3HYhAGT is incubated with an excess of 78 or 79 and the reaction is followed by Western Blotting using an anti-methotrexate antibody. […] Accordingly, at concentrations of 78 of 1 μM and at an excess of 78 over ^3HYhAGT (pseudo first-order conditions), 50% of the protein is labelled in less than 10 min.
For the construction of hAGT fusion proteins, preferably the mutant Asn157Gly Ser159Glu is used. […] The rationale behind the introduction of these mutations is to minimize the interaction of hAGT fusion proteins with DNA in the three-hybrid system. The resulting hAGT mutant carrying the five mutations described above is abbreviated as ^3HYhAGT.

A further experiment deals with T3, hAGT (Homo sapiens, UniProt P16455).
T3 sequence (P16455 1-207): T1 sequence (P16455 1-207 N157G/S159E/G160A) with G157N, E159S, A160G
The following applies: reaction with hAGT; cited from earlier work.

Setting [5] is: co-expression of LexA-DHFR and B42-^3HYhAGT.
Where [6] appears, read: co-expression of LexA-^3HYhAGT and B42-DHFR.

Where a chain is given by its changes, count along the chain named.

For `Nc1nc(OCc2ccc(COCCOCCOCCOCCNC(=O)C(CCCCNC(=O)CCCCCNC(=O)c3ccc(-c4c5ccc(=O)cc-5oc5cc(O)ccc45)c(C(=O)O)c3)NC(=O)CCCCCNC(=O)CCCC[C@H]3SC[C@H]4NC(=O)N[C@H]43)cc2)c2nc[nH]c2n1` (stereo partly drawn) [compound 60, O^6-Benzylguanine-PEG-amino-α-N-(biotinyl-6-aminocaproyl)-ε-N-(6-[fluorescein-5-carbonyl]-aminocaproyl)-lysine], the “substrate for hAGT (reaction product detected by Western Blotting)” value on ^PGEAhAGT-GST [1] is reported as “efficient substrate for hAGT”.

Consider `NCCOCCOCCOCCn1cc(COc2nc(N)nc3[nH]cnc23)nn1` [compound 11, O^6-(1-[11-Amino-3,6,9-trioxaundecyl]-1,2,3-triazolyl-4-methyl)guanine], for which the “reaction of ^PGEAhAGT-GST with biotinylated oligonucleotide after first reacting with the compound” value on ^PGEAhAGT-GST [2] is “no further reaction with biotinylated oligonucleotide is observed”.

`CN(Cc1cnc2nc(N)nc(N)c2n1)c1ccc(C(=O)NC(CCC(=O)NCCOCCOCCOCCOCc2ccc(COc3nc(N)nc4nc[nH]c34)cc2)C(=O)O)cc1` (stereo not drawn) [compound 79, O^6-4-[13-N-(4-{4-[N-(2,4-Diamino-6-pteridinylmethyl)-methylamino]-benzoyl-amino}-4-carboxybutanoyl)-amino-2,5,8,11-tetraoxatridecyl]-benzyl guanine]: the ONPG hydrolysis in experiment [3] (LexA-DHFR/ B42-^3HYhAGT) is reported as 24 nM of o-nitrophenol formed per min per mg total protein; in experiment [3] (LexA-^3HYhAGT/ B42-DHFR), 63 nM of o-nitrophenol formed per min per mg total protein. Besides, the Growth rate entry was “++ (detection of colonies within 3 days)” in experiment [4] (LexA-DHFR/ B42-^3HYhAGT, 10 μM) and “+++ (detection of colonies within 2 days)” in experiment [4] (LexA-^3HYhAGT/ B42-DHFR, 10 μM). Besides, the “growth of yeast L40 on plates lacking histidine (in words)” value is on record as “growth dependent on compounds 78 or 79 is observed” in experiment [4] (setting [5]) and “allows yeast L40 to grow on plates lacking histidine” in experiment [4] (setting [6]). This compound also registered a second-order rate constant at GST-^3HYhAGT (GST-^3HYhAGT incubated with an excess of compound) of about 900 sec^−1M^−1.

In the case of `Nc1nc(OCc2ccccc2)c2nc[nH]c2n1` [O^6-benzylguanine], the “second order rate constant” value at hAGT is recorded as “approximately 10^3 sec^−1 M^−1”.

For the compound `CN(Cc1cnc2nc(N)nc(N)c2n1)c1ccc(C(=O)N[C@@H](CCC(=O)NCCCCCCCCCCCC(=O)NCc2ccc(COc3nc(N)nc4[nH]cnc34)cc2)C(=O)O)cc1` [compound 78], the ONPG hydrolysis in experiment [3] (LexA-DHFR/ B42-^3HYhAGT) is recorded as 28 nM of o-nitrophenol formed per min per mg total protein; in experiment [3] (LexA-^3HYhAGT/ B42-DHFR), 865 nM of o-nitrophenol formed per min per mg total protein. For the same compound, the Growth rate entry in experiment [4] (LexA-DHFR/ B42-^3HYhAGT, 1 μM) is “++ (detection of colonies within 3 days)”; in experiment [4] (LexA-^3HYhAGT/ B42-DHFR, 1 μM), “+++ (detection of colonies within 2 days)”. Moreover, the “growth of yeast L40 on plates lacking histidine (in words)” value in experiment [4] (setting [5]) is reported as “growth dependent on compounds 78 or 79 is observed”; in experiment [4] (setting [6]), “allows yeast L40 to grow on plates lacking histidine”. Further, at GST-^3HYhAGT (1 μM 78, excess over ^3HYhAGT, pseudo first-order conditions), the “time in which 50% of the protein is labelled” value was “less than 10 min”. Also, the kinact/KI at GST-^3HYhAGT (GST-^3HYhAGT incubated with an excess of compound, read-out: second-order rate constant) was about 1500 M⁻¹ s⁻¹.
